Experimental data taken from paper PMC7866087, “Evaluation of Computationally Designed Peptides against TWEAK, a Cytokine of the Tumour Necrosis Factor Ligand Family” (International Journal of Molecular Sciences, 2021).
Values joined by “and” are separate entries in the source; they are usually repeats but may differ in a detail not shown here. Identical values can stand only once. No end group written: not given here.

Legend:
[1] = test system: TWEAK-Fn14 signalling pathway, BRV5 cells; experiment: Cell-based screening of individual peptides, gene expression microarray in TWEAK-stimulated BRV5 cells; design: species or system human; details: 6 h; for BIRC2 mRNA expression (normalized to NARS2) / HSP90B1 mRNA expression (normalized to NARS2) / IL6 mRNA expression (normalized to NARS2) / JUN mRNA expression (normalized to NARS2) / MAP4K4 mRNA expression (normalized to NARS2) / MAPK14 mRNA expression (normalized to NARS2) / NFKB2 mRNA expression (normalized to NARS2) / TNFRSF12A mRNA expression (normalized to NARS2) / TRAF2 mRNA expression (normalized to NARS2): 450 µM
Source text: Pool 1 and 5 were therefore deconstructed to assess the effect of individual peptides and their activity on same cell-based screening. Pools 1 and 5 were composed of peptides 45, 46, 42, 3, 49, 11, and 13; and of peptides 1, 9, 30, 35, 41, 43, 7, and 14, respectively. As before, and shown in Figure 4B, the level of expression of probe genes on TWEAK-stimulated (T) BRV5 cells is overall higher than on non-stimulated (NT) one. […] The structural model of peptides 43, 30, 35 and 49 bound to TWEAK can be seen in Figure 5 and Supplementary Materials Figures S4–S6, respectively.
Three different cell lines were used in this study: BRV5, MDA-MB 435 (435-P), and HT29. The BRV5 is a highly metastatic brain cell line, obtained in one of our laboratories by primary culture from a brain of a nude mouse inoculated with human 435-Br1 brain metastatic cells, as previously described and used as a model to test the peptides in cell cultures. […] The triple negative 435-P cell line is a useful human breast cancer model that expresses both epithelial and melanocytic markers, and was included as the parental cell from which 435-Br1 metastatic variant was initially originated (both cell lines kindly provided by Dr Fabra at IDIBELL Institute, Hospitalet de Llobregat, Spain). Finally, HT29 human colon carcinoma cells obtained from the European Type Culture Collection (ECACC 91072201) were used as a positive control of TWEAK dependent Fn14 over-expressing cells to evaluate TWEAK-Fn14 axis of brain metastatic variants.
Appropriate cell culture conditions were established as the controls needed in the expression of genes with and without peptides and with and without TWEAK activation, both as pools and individually (see Supplementary Materials Figure S2). The protocol started with the seeding of 125,000 cells/well in 500 µL of culture media supplemented with 10% fetal bovine serum (CM+FBS10%) in 24-well dishes for 24 h before removing FBS (CM-FBS). After overnight starvation in CM-FBS culture, different peptide treatment conditions (at final concentration of 450 µM) were established in the presence or absence of TWEAK (25 ng/mL final concentration) (Peprotech EC, Ltd., London, UK). Some cells were treated with peptides at a single, unique, initial dose (time 0) while other were treated with repeated doses to account for the effect cell-culture degradation. These include a repeated treatment every hour (i.e., […]), every two hours (time 0, 2, and 4) and every three hours (time 0 and 3)—see Supplementary Materials Figure S2 for diagrammatic depiction. At time 6 (after six hours) cells were lysed and RNA extracted for transcriptomic analyses (see next). Cell were culture for six hours as this was the time needed to achieve the highest upregulation of the TWEAK-Fn14 axis upon TWEAK treatment as shown in previous time-course RT-PCR experiments (see Figure 2).
RNA from cells was extracted 6 h after treatments by direct lysis on the well. The RNeasy Micro kit (Qiagen, Hilden, Germany) was used to isolate total RNA from cell lysate following manufacturer’s protocols including an additional step of digestion with DNase I (Qiagen, Hilden, Germany). Total RNA concentration was measured in a NanoDrop 1000 spectrophotometer (Thermo Scientific, Waltham, MA, USA). The RNA extracted from treated and untreated cells (see above) was used as a proxy for gene expression.
The quantitative RT-PCR was performed using Fluidigm Dynamic Array FlexSix array with the specific primers for gene expression (Delta Genes Assays, Wet lab tested on Dynamic Array IFC) designed to RefSeq for detection by pPCR EvaGreen assay (Dynamic Array FlexSix, Fluidigm Corporation). Each Flex Six IFC has a total of six independent partitions. Each partition has a 12 × 12 format (12 assay inlets and 12 sample inlets) and will be run independently as a separate experimental run. […]

[2] = Precipitation in SPR running buffer; format: physicochemical; details: running buffer HBS-EP pH 7.4, 6.25 µM to 800 µM, 25 °C
Method: (§1) After chip validation, peptides selected on our cell-based microarray screening were tested.
Binding assays were performed at 25 °C in a Biacore 3000 instrument (GE Healthcare, Uppsala, Sweden) using nitrilotriacetic (NTA) sensor chips (GE Healthcare) and HBS-EP (0.01 M HEPES pH 7.4, 0.15 M NaCl, 3 mM EDTA, 0.005 % v/v Surfactant P20) as running buffer. Histidine-tagged human TWEAK (His6-TWEAK) protein (R&D Systems, Minneapolis, MN, USA) was covalently immobilized on the sensor surface using a capture coupling method. Briefly, the NTA surface was first stabilized by injection of regeneration buffer (20 μL EDTA-containing running buffer at 20 μL/min) followed by Ni^2+ binding to the surface (40 μL of 500 μM NiCl2 in running buffer at 20 μL/min). The carboxymethyl dextran surface was then activated for primary amine coupling by injecting coupling solution (30 μL of a 1:1 N-hydroxysuccinimide (NHS)/1-ethyl-3-[3-(dimethylamino)-propyl]carbodiimide hydrochloride (EDC) mixture at 5 μL/min). […]
Binding experiments using a monoclonal anti-TWEAK antibody (Abcam ref. 199405, Cambridge, UK) were run to ascertain adequate functionalization of the immobilized surface. […] The dissociation phase was monitored for 10 min at the same flow rate and followed by a regeneration step with 10 µL of 18 mM NaOH. […]

human His6-TWEAK protein = target: T1, human His6-TWEAK protein (Homo sapiens, UniProt O43508); experiment: SPR binding of peptides to immobilized His6-TWEAK; details: 25 °C, 1:1 Langmuir global fit, representative of at least three independent experiments
T1 construct: purchased R&D Systems
T1 sequence (O43508 97-249 limits assumed): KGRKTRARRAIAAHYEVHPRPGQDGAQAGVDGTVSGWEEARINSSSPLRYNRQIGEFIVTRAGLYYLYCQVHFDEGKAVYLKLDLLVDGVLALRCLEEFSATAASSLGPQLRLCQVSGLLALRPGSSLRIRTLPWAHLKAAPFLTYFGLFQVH
Source text: SPR biosensor interaction analysis, a label-free screening approach, was used for real-time monitoring of the kinetics and affinity of peptide hits to TWEAK previously identified by cell-based screening. Peptides from pools 1 and 5 were selected both as positive (49, 30, 35 and 43) and negative hits (1 and 42). For our purposes, TWEAK was chosen as ligand, while peptides were chosen as analytes and passed across ligand-derivatized surface. Nitrilotriacetic acid-coated sensor chips (NTA chip) and a coupling approach that results in the capture of a His6-protein in a non-random orientation by the His6 epitope prior to direct free amine-based covalent coupling was used for histidine-tagged TWEAK immobilization.
as §1
For each titration, a zero-analyte surface as a control was subtracted from test sensorgram as well as non-specific binding to the blank flow cell without protein; and the chip surface was regenerated in order to remove any remaining analyte. The black curves show the experimental data, while the overlaid red lines represent a global fit of the entire data set to a 1:1 Langmurian interaction model. The fitting process provided both kinetic association and dissociation rate constants (Ka and Kd), as well as equilibrium dissociation constant (KD) values indicated in Figure 6.
Binding assays were performed at 25 °C in a Biacore 3000 instrument (GE Healthcare, Uppsala, Sweden) using nitrilotriacetic (NTA) sensor chips (GE Healthcare) and HBS-EP (0.01 M HEPES pH 7.4, 0.15 M NaCl, 3 mM EDTA, 0.005 % v/v Surfactant P20) as running buffer. Histidine-tagged human TWEAK (His6-TWEAK) protein (R&D Systems, Minneapolis, MN, USA) was covalently immobilized on the sensor surface using a capture coupling method. Briefly, the NTA surface was first stabilized by injection of regeneration buffer (20 μL EDTA-containing running buffer at 20 μL/min) followed by Ni^2+ binding to the surface (40 μL of 500 μM NiCl2 in running buffer at 20 μL/min). The carboxymethyl dextran surface was then activated for primary amine coupling by injecting coupling solution (30 μL of a 1:1 N-hydroxysuccinimide (NHS)/1-ethyl-3-[3-(dimethylamino)-propyl]carbodiimide hydrochloride (EDC) mixture at 5 μL/min). His6-TWEAK protein in pH 7.4 running buffer was then injected over the surface (60 μL of 10 μg/mL His6-TWEAK at 5 μL/min). To block uncoupled primary amines on the sensor surface, ethanolamine was passed over the surface (35 μL 1M ethanolamine at 5 μL/min). Ligand surfaces were finally conditioned with a 20 µL injection of regeneration solution containing 350 mM EDTA at 20 μL/min. Immobilization levels ranged from 1500 to 7000 resonance units (RUimmob) to test different ligand densities. A blank flow cell on the chip was created by simple injection of 20 μL of regeneration buffer injected over the sensor surface.
Binding experiments using a monoclonal anti-TWEAK antibody (Abcam ref. 199405, Cambridge, UK) were run to ascertain adequate functionalization of the immobilized surface. Selected synthetic TWEAK-Fn14 inhibitory peptides at two-fold serial dilutions from 800 µM to 0 µM in running buffer were flown over the chip for 5 min at 35 µL/min. The dissociation phase was monitored for 10 min at the same flow rate and followed by a regeneration step with 10 µL of 18 mM NaOH. Specific binding responses for each channel were obtained by double referencing; subtracting non-specific binding to the blank flow cell plus an internal reference standard, namely buffer injection response. Each sample was run in triplicate. The experimental data were fitted to a 1:1 Langmuir binding model by the BIAevaluation software version 4.1 (GE Healthcare, Uppsala, Sweden).

[3] = individual peptides, BRV5 + TWEAK, mean of replicate columns
[4] = individual peptides, BRV5 + TWEAK, replicate column 1
[5] = individual peptides, BRV5 + TWEAK, replicate column 2
[6] = individual peptides, BRV5 + TWEAK, normalized to NARS2, listed as P30

30: DNGGGNTDIYSE [Peptide 30]
regulation of probe genes by individual peptides ([1]; BRV5 + TWEAK 25 ng/mL, peptides 450 µM): lowest overall expression across all genes | BIRC2 mRNA expression (normalized to NARS2) [1, 3]: 0.4705 | HSP90B1 mRNA expression (normalized to NARS2) [1, 3]: 1.723 | IL6 mRNA expression (normalized to NARS2) [1, 3]: 0.001837 | JUN mRNA expression (normalized to NARS2) [1, 3]: 0.05309 | MAP4K4 mRNA expression (normalized to NARS2) [1, 3]: 0.1227 | MAPK14 mRNA expression (normalized to NARS2) [1, 3]: 0.1367 | NFKB2 mRNA expression (normalized to NARS2) [1, 3]: 0.02657 | TNFRSF12A mRNA expression (normalized to NARS2) [1, 3]: 0.01074 | TRAF2 mRNA expression (normalized to NARS2) [1, 3]: 0.01042 | BIRC2 mRNA expression (normalized to NARS2) [1, 4]: 0.46 | HSP90B1 mRNA expression (normalized to NARS2) [1, 4]: 1.5246 | IL6 mRNA expression (normalized to NARS2) [1, 4]: 0.001779 | JUN mRNA expression (normalized to NARS2) [1, 4]: 0.05111 | MAP4K4 mRNA expression (normalized to NARS2) [1, 4]: 0.1133 | MAPK14 mRNA expression (normalized to NARS2) [1, 4]: 0.1336 | NFKB2 mRNA expression (normalized to NARS2) [1, 4]: 0.02493 | TNFRSF12A mRNA expression (normalized to NARS2) [1, 4]: 0.00974 | TRAF2 mRNA expression (normalized to NARS2) [1, 4]: 0.009779 | BIRC2 mRNA expression (normalized to NARS2) [1, 5]: 0.481 | HSP90B1 mRNA expression (normalized to NARS2) [1, 5]: 1.9206 | IL6 mRNA expression (normalized to NARS2) [1, 5]: 0.001894 | JUN mRNA expression (normalized to NARS2) [1, 5]: 0.05506 | MAP4K4 mRNA expression (normalized to NARS2) [1, 5]: 0.1321 | MAPK14 mRNA expression (normalized to NARS2) [1, 5]: 0.1398 | NFKB2 mRNA expression (normalized to NARS2) [1, 5]: 0.02821 | TNFRSF12A mRNA expression (normalized to NARS2) [1, 5]: 0.01174 | TRAF2 mRNA expression (normalized to NARS2) [1, 5]: 0.01106 | BIRC2 expression Z-Score [1, 6]: -0.6095 | HSP90B1 expression Z-Score [1, 6]: -0.9208 | IL6 expression Z-Score [1, 6]: -0.0450 and -0.04503 | JUN expression Z-Score [1, 6]: -0.5095 | MAP4K4 expression Z-Score [1, 6]: -1.5551 and -1.555 | MAPK14 expression Z-Score [1, 6]: -1.1124 and -1.112 | NFKB2 expression Z-Score [1, 6]: -1.3232 and -1.323 | TNFRSF12A expression Z-Score [1, 6]: -1.112 | TRAF2 expression Z-Score [1, 6]: -0.4386 | precipitation [2]: precipitated at all concentrations tested

SYTDVQDS-NH2 [Peptide 49]
kon (human His6-TWEAK protein; HBS-EP pH 7.4, Biacore 3000, NTA chip, read-out: ka): 4.88 M⁻¹ s⁻¹ | Kd (human His6-TWEAK protein; figure 6, HBS-EP pH 7.4, 6.25 µM to 800 µM peptide): 533 µM
